According to patent US6677344B2, “Chymase inhibitor for the treatment of eosinophilia” (Daiichi Suntory Pharma Co., Ltd., priority 2000, dated 2004):
Values belong to the compound of their own block, whether it stands above or below them.

Experiments:
[1] = target: T1, Human heart chymase (Homo sapiens, UniProt P23946); experiment: Measurement of chymase inhibitory activity; assay type: biochemical; details: substrate Suc-Ala-Ala-Pro-Phe-MCA, 30° C., pH 7.5
T1 construct: Human heart chymase was purified according to the method of Urata et al; from tissue; host or cells: human heart
T1 sequence (P23946 22-247): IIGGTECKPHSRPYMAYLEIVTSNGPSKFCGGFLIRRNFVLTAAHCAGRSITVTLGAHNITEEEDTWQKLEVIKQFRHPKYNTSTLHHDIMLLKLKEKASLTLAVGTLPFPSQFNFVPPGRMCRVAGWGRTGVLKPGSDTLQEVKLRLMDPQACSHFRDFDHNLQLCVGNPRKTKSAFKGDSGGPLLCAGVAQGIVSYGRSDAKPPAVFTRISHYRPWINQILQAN
Description: Human heart chymase was purified according to the method of Urata et al. (J. Biol. Chem., 1990, 265, 22348). The inhibitory activity of the compound of the present invention was determined as follows. Purified enzyme was diluted with 0.1M tris-HCl buffer (pH=7.5), 1M sodium chloride, and 0.01% TritonX-100 to obtain an enzyme solution having appropriate concentrations. Suc-Ala-Ala-Pro-Phe-MCA (Peptide Institute Inc.) was dissolved in 10 mM dimethyl sulfoxide (hereinafter referred to as DMSO) and diluted 20-fold with 0.1M Tris-HCl buffer (pH 7.5) containing 1M sodium chloride and 0.01% TritonX-100 to an appropriate concentration to prepare substrate solution.
5 μl of the test sample in DMSO was added to 75 μl of the enzyme solution and preincubated at 30° C. for 10 minutes. Then, 20 μl of the substrate solution was added to the test sample-enzyme mixture, and incubated at 30° C. Ten minutes later, 50 μl of 30% acetic acid was added to stop the enzymatic reaction, and the amount of AMC formed was determined using a fluorophotometer. At the same time, 5 μl of DMSO in stead of the test sample was added and reacted simultaneously as a control. The inhibitory activity to human chymase was calculated based on the value of the control, and then the inhibition percentage and the 50% inhibition concentration (IC50) were determined.

[2] = system: Nippostrongylus brasiliensis (Nb); experiment: Number of eggs in feces in Nb infected mice; assay type: in vivo
Description: (§1) Male BALB/c mice (7-weeks old) were transcutaneously inflected with 750 parasitic worms of Nippostrongylus brasiliensis (Nb) (third stage larvae) in accordance with an already reported method (Int. Arch. Allergy Immunol. 117, Suppl. 1, 2, 1998). After two weeks, the number of eosinophils in the peripheral blood and the total number of leukocytes in the peripheral blood were measured. Further, at day 7 and day 10, the number of eggs in the feces was measured. The chymase inhibitor (Compound 18) was dissolved in saline and injected intraperitoneally in 0.2 ml amounts once a day continuously from the day before infection until the end of the test. Note that the control group was administered only saline. The number of cells in the peripheral blood was measured by sampling peripheral blood from the eye cavity. The eosinophils were stained with a Hinkelman's solution, then counted under a microscope. Further, the total number of leukocytes was measured under a microscope after staining with by a Turk's solution. The number of eggs in the feces was determined by obtaining individual feces of the mice, measuring their weight, then dissolving them in 1 ml of 10% formalin, counting the number of eggs in the feces solution under a microscope, then expressing the result as the number of eggs per gram of feces.

[3] = system: eosinophils in the peripheral blood of Nb infected mice; experiment: Increase in eosinophils of mice infected with Nippostrongylus brasiliensis (Nb); assay type: in vivo
Description: as §1

[4] = 50 mg/kg, intraperitoneal once a day, BALB/c mice, 2 weeks after Nb infection

IC50 [1]: 0.3 µM
Compound: CC(C(=O)O)C(=O)Nc1cccc(S(=O)(=O)n2c(=O)[nH]c3cc(Cl)ccc3c2=O)c1 (stereo not shown) [Compound 13, 2-{3-[(7-chloro-2,4(1H,3H)-quinazolinedion-3-yl)sulfonyl]phenylaminocarbonyl}propionic acid]

Compound: Nc1cc(S(=O)(=O)n2c(=O)[nH]c3cc(Cl)ccc3c2=O)ccc1C(=O)[O-].[Na+] [Compound 18, 4-[(7-chloro-2,4(1H,3H)-quinazolinedion-3-yl)sulfonyl]anthranilic acid monosodium salt]
No. of Nb eggs in gram of feces, Day 7 ([2]; 50 mg/kg, intraperitoneal once a day, day 7 after Nb infection): 30541 ± 12501 eggs per gram of feces | No. of Nb eggs in gram of feces, Day 10 ([2]; 50 mg/kg, intraperitoneal once a day, day 10 after Nb infection): 558 ± 1248 eggs per gram of feces | Difference in number of eggs of Nb versus group not administered ([2]; day 7 or day 10 after Nb infection): almost no difference | Number of eosinophils in peripheral blood, 2 weeks after infection ([3]; 2 mg/kg, intraperitoneal once a day, BALB/c mice, 2 weeks after Nb infection): 1036 ± 240 no./mm^3 | Number of eosinophils in peripheral blood, before infection ([3]; 2 mg/kg, intraperitoneal once a day, BALB/c mice): 30 ± 12 no./mm^3 | Number of eosinophils in peripheral blood, 2 weeks after infection ([3]; 10 mg/kg, intraperitoneal once a day, BALB/c mice, 2 weeks after Nb infection): 818 ± 155 no./mm^3 | Number of eosinophils in peripheral blood, before infection ([3]; 10 mg/kg, intraperitoneal once a day, BALB/c mice): 36 ± 11 no./mm^3 | Number of eosinophils in peripheral blood, 2 weeks after infection [3, 4]: 360 ± 66 no./mm^3 | Total no. of leukocytes in peripheral blood 2 weeks after infection [3, 4]: 5820 ± 460 no./mm^3 | Number of eosinophils in peripheral blood, before infection ([3]; 50 mg/kg, intraperitoneal once a day, BALB/c mice): 32 ± 16 no./mm^3 | Effect on Nb-induced increase in the number of eosinophils ([3]; 50 mg/kg/day, Dunnett's test, 2 weeks after infection): significantly suppressed | Effect on the total number of leukocytes in the peripheral blood ([3]; Nb infected mice, 2 weeks after infection): little effect
